For this data set, the system named is human microvascular endothelial cell line HMEC-1. The experiment in a line: Membrane permeabilisation of HMEC-1 (LDH release). Format: cell-based. The following applies: 24 h; for LDH release from HMEC-1: relative to lysis buffer. The protocol:
The membrane permeabilisation of the human microvascular endothelial cell line, HMEC-1, was evaluated using the Pierce LDH Cytotoxicity Assay Kit (Thermo Fisher Scientific, San Francisco, CA, USA). HMEC-1 cells were cultured in MCDB-131 medium (Life Technology, Paisley, UK) with 10% FBS, 10 ng/ml epidermal growth factor (EGF) (Life Technology, Paisley, UK), 10 mM L-glutamine (Life Technology, Paisley, UK), and 1% penicillin-streptomycin (Sigma-Aldrich, St. Louise, MO, USA), at 37°C under 5% CO2. Cells were seeded in a 96-well plate at 5000 cells per well and cultured overnight to 80% confluency. Then, the cells were treated with different peptide solutions of gradient concentrations from 10^−7 M to 10^−4 M for 24 h at 37°C, 5% CO2, and H2O-treated cells were made as the spontaneous LDH release control. Lysis buffer was added to cells and incubated for 45 min at 37°C, 5% CO2, to produce the lysis buffer-treated cells which were referred to as maximum LDH release control. Then 50 μl of each sample supernatant was transferred to a 96-well flat-bottom plate in triplicate wells, to which 50 μl of reaction mixture was added, incubated, and protected from light at room temperature for 30 min. After addition of 50 μl Stop Solution to each sample well and removal of bubbles present in sample wells, the absorbance at 490 nm and 680 nm was measured. The absorbance values at 680 nm were subtracted from the absorbance values at 490 nm before calculation of the level of LDH release (cytotoxicity). The level of LDH release was calculated as (2) LDH release %=L−L0/L1−L0×100%, where L refers to sample-treated LDH activity, L0 to spontaneous (H2O-treated) LDH activity, and L1 to maximum (lysis buffer-treated) LDH activity.
Data analysis was performed using one-way analysis of variance followed by Dunnett's multiple comparison tests with maximum LDH release control in GraphPad Prism (Version 6.0; GraphPad Software Inc., San Diego, CA, USA).
(LDH in the medium is a marker of cell lysis.)

Ends that are not written are not given here.

Consider GLFDIVGKLLGGLGL-NH2 [Caeridin-a1], for which the “LDH release from HMEC-1” value by setting is: (10 μM) “approximately 10%”; (100 μM) “about 50%”. The “cytotoxicity to HMEC-1 cells” value (100 μM, LDH release) is given as “significant cytotoxicity”.

Source of the values: article PMC6079455, “Discovery of Novel Caeridins from the Skin Secretion of the Australian White's Tree Frog, Litoria caerulea” (International Journal of Genomics, 2018).
